# Patent publication US8466156B2, “2-phenyl-4-cyclopropyl-pyrimidine derivatives” (Actelion Pharmaceuticals Ltd., priority 2008, dated 2013)
# Biological target: T1, human P2Y12 receptor (Homo sapiens, UniProt Q9H244)
# T1 construct: expressed in transfected cells; host or cells: Chinese Hamster Ovary (CHO) cells
# Assay: P2Y12 receptor binding assay (displacement of tritium-labeled 2-methyl-S-ADP on CHO cells)
# Details: CHO cells with recombinant expression of the human P2Y12 receptor, 2 hours at RT, Example compounds table
# Procedure: P2Y12 Receptor Binding Assay
# Chinese Hamster Ovary (CHO) cells with recombinant expression of the human P2Y12 receptor were cultured in 24 well cell-culture plates. Cells were washed three times with binding buffer (50 mM Tris pH 7.4, 100 mM NaCl, 1 mM EDTA, 0.5% BSA). The cells were then incubated with 0.5 ml per well binding buffer containing tritium-labeled 2-methyl-thio-adenosine 5′-diphosphate (2-methyl-S-ADP) (between 100'000 and 300'000 dpm per well) and various concentrations of test compounds. After incubation at RT for 2 hours, cells were washed three times with binding buffer. Then, cells were solubilized by addition of 0.5 ml solubilization buffer (SDS, NaOH, EDTA). The content of each well was then transferred into beta-counter vials and 2.0 ml of Ultima Gold Scintillation liquid was added.
# T1 sequence (Q9H244 whole entry): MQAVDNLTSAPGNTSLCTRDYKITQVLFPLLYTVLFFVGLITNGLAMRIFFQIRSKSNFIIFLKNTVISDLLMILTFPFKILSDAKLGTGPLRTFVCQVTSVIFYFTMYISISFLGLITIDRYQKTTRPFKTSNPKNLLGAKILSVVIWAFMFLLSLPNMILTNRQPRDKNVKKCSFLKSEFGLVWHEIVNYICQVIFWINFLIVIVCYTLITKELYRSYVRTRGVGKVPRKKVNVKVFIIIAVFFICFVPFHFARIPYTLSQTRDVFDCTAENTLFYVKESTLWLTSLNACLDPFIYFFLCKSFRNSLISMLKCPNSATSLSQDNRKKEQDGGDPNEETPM
row,Structure (SMILES),IC50 [nM]
1,"CCCCOC(=O)N1CCN(C(=O)[C@H](CCC(=O)O)NC(=O)c2cc([C@@H]3C[C@H]3COC)nc(-c3ccccc3)n2)CC1 (mixture of isomers) [Example 2, 4-((S)-4-carboxy-2-{[6-(trans-2-methoxymethyl-cyclopropyl)-2-phenyl-pyrimidine-4-carbonyl]-amino}-butyryl)-piperazine-1-carboxylic acid butyl ester]",3
2,"CCCCOC(=O)N1CCN(C(=O)[C@H](CCC(=O)O)NC(=O)c2cc([C@@H]3C[C@@H]3COC)nc(-c3ccccc3)n2)CC1 (mixture of isomers) [Example 6, 4-((S)-4-carboxy-2-{[6-(cis-2-methoxymethyl-cyclopropyl)-2-phenyl-pyrimidine-4-carbonyl]-amino}-butyryl)-piperazine-1-carboxylic acid butyl ester]",9
3,"CCCCOC(=O)N1CCN(C(=O)[C@H](CCC(=O)O)NC(=O)c2cc([C@H]3C[C@@H]3COC)nc(-c3ccc(F)cc3)n2)CC1 [Example 5, 4-((S)-4-carboxy-2-{[2-(4-fluoro-phenyl)-6-((1S,2S)-2-methoxymethyl-cyclopropyl)-pyrimidine-4-carbonyl]-amino}-butyryl)-piperazine-1-carboxylic acid butyl ester]",2

# The remaining lines, values ahead:
row,IC50 [nM],Structure (SMILES)
1,6,"CCCCOC(=O)N1CCN(C(=O)[C@H](CCC(=O)O)NC(=O)c2cc(C3CC3)nc(-c3ccccc3)n2)CC1 [Example 1, 4-{(S)-4-carboxy-2-[(6-cyclopropyl-2-phenyl-pyrimidine-4-carbonyl)-amino]-butyryl}-piperazine-1-carboxylic acid butyl ester]"
2,5,"CCCCOC(=O)N1CCN(C(=O)[C@H](CCC(=O)O)NC(=O)c2cc([C@H]3C[C@@H]3COC)nc(-c3ccccc3)n2)CC1 [Example 3, 4-((S)-4-carboxy-2-{[6-((1S,2S)-2-methoxymethyl-cyclopropyl)-2-phenyl-pyrimidine-4-carbonyl]-amino}-butyryl)-piperazine-1-carboxylic acid butyl ester]"
3,4,"CCCCOC(=O)N1CCN(C(=O)[C@H](CCC(=O)O)NC(=O)c2cc([C@H]3C[C@@H]3CO)nc(-c3ccccc3)n2)CC1 [Example 4, 4-((S)-4-carboxy-2-{[6-((1S,2S)-2-hydroxymethyl-cyclopropyl)-2-phenyl-pyrimidine-4-carbonyl]-amino}-butyryl)-piperazine-1-carboxylic acid butyl ester]"

# Same assay, conditions: CHO cells with recombinant expression of the human P2Y12 receptor, 2 hours at RT, comparison with reference compounds of WO 2006/114774
row,Structure (SMILES),IC50 [nM]
1,"CCOC(=O)N1CCN(C(=O)[C@H](CCC(=O)O)NC(=O)c2cc(C3CC3)nc(-c3ccccc3)n2)CC1 [Example 90 of WO 2006/114774, reference compound]",43
2,"CCOC(=O)N1CCN(C(=O)[C@H](CCC(=O)O)NC(=O)c2cc(C3CC3CO)nc(-c3ccccc3)n2)CC1 (some centres unmarked) [Example 500 of WO 2006/114774, reference compound]",23
